Measurements taken from PMC4854315, “Discovery of a novel allosteric inhibitor-binding site in ERK5: comparison with the canonical kinase hinge ATP-binding site” (Acta Crystallographica. Section D, Structural Biology, 2016).

What was measured:
Test in all cases: Z'-LYTE kinase panel
Type in all cases: biochemical
[1] = target: T1, AKT2 (PKB beta) (Homo sapiens, UniProt P31751)
T1 construct: purchased ThermoFisher (SelectScreen, Z'-LYTE)
Summary of the method: (§1)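 Screened at 10 µM against a 225-kinase panel; the Z′-LYTE standard assay gave percentage inhibition values.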

[2] = target: T2, CHEK2 (CHK2) (Homo sapiens, UniProt O96017)
T2 construct: purchased ThermoFisher (SelectScreen, Z'-LYTE)
T2 sequence (O96017 whole entry): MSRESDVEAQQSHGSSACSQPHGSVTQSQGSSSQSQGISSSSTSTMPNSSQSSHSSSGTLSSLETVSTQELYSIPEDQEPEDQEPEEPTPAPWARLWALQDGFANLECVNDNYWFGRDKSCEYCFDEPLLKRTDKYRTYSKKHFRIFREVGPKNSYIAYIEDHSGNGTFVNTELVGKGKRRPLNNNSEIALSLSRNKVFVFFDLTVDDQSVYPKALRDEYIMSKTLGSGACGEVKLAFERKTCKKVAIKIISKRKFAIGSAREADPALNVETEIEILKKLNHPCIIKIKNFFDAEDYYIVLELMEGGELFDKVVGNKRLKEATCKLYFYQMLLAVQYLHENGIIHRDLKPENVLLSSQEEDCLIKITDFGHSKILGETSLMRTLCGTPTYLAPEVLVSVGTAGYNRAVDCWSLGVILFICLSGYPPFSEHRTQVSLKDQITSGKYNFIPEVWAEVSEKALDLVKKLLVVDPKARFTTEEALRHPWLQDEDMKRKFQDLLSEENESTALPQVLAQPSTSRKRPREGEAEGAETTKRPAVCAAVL
Summary of the method: as §1

[3] = target: T3, EEF2K (Homo sapiens, UniProt O00418)
T3 construct: purchased ThermoFisher (SelectScreen, Z'-LYTE)
Summary of the method: as §1

[4] = target: T4, EPHB4 (Homo sapiens, UniProt P54760)
T4 construct: purchased ThermoFisher (SelectScreen, Z'-LYTE)
T4 sequence (P54760 16-987): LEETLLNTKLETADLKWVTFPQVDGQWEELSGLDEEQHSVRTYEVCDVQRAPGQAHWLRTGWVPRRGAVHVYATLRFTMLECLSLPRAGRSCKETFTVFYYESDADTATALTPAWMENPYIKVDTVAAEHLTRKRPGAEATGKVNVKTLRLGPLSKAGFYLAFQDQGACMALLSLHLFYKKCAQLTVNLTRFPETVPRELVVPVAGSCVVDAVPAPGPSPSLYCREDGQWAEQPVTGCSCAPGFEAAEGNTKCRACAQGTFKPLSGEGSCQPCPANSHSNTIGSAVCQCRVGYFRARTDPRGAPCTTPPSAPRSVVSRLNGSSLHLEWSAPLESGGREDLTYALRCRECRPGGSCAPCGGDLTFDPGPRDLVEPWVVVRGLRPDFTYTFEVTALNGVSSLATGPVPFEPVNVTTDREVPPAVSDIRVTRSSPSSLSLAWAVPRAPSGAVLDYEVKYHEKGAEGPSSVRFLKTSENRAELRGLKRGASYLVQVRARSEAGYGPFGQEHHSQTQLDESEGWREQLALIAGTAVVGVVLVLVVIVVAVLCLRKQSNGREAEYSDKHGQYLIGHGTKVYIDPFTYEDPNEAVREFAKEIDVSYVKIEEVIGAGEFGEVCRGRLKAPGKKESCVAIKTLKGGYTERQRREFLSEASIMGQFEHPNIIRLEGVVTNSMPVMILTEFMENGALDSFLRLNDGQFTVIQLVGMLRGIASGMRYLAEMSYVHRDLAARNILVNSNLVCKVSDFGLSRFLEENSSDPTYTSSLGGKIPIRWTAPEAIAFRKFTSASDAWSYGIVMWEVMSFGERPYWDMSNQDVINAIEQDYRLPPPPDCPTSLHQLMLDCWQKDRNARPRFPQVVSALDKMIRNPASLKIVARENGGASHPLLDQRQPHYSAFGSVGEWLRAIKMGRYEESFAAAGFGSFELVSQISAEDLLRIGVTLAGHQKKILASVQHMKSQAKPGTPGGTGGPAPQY
Summary of the method: as §1

[5] = target: T5, ERBB4 (HER4) (Homo sapiens, UniProt Q15303)
T5 construct: purchased ThermoFisher (SelectScreen, Z'-LYTE)
T5 sequence (Q15303 26-1308): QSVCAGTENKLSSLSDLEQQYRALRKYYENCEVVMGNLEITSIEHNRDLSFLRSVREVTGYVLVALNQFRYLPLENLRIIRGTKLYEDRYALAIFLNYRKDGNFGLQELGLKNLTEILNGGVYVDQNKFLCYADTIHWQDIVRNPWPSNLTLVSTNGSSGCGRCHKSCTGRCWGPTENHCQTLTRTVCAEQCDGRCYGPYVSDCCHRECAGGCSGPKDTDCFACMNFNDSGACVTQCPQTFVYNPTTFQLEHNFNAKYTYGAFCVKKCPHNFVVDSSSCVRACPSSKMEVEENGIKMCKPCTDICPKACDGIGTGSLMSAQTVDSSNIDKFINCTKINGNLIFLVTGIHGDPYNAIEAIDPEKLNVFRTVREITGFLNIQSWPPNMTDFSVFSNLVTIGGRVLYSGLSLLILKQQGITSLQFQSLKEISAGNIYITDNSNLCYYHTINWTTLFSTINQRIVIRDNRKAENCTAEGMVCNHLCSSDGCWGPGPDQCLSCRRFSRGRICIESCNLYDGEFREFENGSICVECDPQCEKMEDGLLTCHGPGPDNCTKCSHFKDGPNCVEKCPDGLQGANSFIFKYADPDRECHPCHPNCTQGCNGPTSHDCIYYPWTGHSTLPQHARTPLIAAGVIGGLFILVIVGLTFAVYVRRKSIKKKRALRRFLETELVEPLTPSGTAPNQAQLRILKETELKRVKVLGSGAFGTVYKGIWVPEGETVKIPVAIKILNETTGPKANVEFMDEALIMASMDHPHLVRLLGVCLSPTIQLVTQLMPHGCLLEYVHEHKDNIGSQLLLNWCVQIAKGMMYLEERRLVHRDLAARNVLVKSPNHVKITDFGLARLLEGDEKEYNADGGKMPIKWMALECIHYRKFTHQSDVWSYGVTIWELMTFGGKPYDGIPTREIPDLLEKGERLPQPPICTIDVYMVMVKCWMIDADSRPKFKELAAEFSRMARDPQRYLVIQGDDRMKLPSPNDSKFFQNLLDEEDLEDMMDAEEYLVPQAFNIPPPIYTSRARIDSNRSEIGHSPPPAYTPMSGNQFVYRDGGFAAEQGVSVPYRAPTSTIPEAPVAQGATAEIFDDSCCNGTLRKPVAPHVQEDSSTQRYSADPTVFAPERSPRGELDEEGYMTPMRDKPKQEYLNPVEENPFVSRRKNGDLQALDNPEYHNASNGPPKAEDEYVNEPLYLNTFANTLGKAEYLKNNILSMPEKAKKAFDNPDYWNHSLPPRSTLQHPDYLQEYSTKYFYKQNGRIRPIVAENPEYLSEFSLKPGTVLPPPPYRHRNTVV
Summary of the method: as §1

[6] = target: T6, MINK1 (Homo sapiens, UniProt Q8N4C8)
T6 construct: purchased ThermoFisher (SelectScreen, Z'-LYTE)
T6 sequence (Q8N4C8 whole entry): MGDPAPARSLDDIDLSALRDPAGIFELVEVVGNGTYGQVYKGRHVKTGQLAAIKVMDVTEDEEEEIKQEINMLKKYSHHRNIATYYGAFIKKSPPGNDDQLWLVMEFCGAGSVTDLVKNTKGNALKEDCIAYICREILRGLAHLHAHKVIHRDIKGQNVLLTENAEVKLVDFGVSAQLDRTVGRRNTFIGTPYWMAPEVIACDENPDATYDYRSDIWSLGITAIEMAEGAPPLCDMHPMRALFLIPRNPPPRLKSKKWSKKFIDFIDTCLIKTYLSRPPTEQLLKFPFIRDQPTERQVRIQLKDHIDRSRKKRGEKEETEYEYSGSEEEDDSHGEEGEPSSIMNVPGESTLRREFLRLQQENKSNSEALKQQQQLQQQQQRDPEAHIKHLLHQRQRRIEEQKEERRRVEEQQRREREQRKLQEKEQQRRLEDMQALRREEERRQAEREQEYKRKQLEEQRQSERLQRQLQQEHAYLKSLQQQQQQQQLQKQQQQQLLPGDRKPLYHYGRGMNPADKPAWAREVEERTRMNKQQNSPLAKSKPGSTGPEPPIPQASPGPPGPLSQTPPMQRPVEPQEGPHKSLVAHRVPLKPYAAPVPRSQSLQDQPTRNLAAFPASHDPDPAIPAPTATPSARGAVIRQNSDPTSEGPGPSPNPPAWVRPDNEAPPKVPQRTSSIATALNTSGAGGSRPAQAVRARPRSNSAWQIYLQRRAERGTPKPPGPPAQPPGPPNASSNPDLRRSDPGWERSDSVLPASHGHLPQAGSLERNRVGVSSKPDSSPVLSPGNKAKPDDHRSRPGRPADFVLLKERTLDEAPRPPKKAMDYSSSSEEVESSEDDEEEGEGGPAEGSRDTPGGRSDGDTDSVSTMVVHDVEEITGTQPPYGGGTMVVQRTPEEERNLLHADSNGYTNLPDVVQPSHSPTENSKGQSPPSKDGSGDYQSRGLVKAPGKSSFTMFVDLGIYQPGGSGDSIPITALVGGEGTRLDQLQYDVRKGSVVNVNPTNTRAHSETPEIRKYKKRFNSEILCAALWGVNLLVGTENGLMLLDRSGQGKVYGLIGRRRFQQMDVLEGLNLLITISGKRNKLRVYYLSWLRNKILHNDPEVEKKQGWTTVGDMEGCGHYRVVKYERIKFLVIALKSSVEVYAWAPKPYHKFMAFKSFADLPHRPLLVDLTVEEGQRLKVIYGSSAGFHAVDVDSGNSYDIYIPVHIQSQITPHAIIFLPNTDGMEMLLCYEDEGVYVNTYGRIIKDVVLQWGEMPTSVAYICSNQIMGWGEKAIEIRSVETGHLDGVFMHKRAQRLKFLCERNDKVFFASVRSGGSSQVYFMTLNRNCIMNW
Summary of the method: as §1

[7] = target: T7, NEK9 (Homo sapiens, UniProt Q8TD19)
T7 construct: purchased ThermoFisher (SelectScreen, Z'-LYTE)
T7 sequence (Q8TD19 1-979): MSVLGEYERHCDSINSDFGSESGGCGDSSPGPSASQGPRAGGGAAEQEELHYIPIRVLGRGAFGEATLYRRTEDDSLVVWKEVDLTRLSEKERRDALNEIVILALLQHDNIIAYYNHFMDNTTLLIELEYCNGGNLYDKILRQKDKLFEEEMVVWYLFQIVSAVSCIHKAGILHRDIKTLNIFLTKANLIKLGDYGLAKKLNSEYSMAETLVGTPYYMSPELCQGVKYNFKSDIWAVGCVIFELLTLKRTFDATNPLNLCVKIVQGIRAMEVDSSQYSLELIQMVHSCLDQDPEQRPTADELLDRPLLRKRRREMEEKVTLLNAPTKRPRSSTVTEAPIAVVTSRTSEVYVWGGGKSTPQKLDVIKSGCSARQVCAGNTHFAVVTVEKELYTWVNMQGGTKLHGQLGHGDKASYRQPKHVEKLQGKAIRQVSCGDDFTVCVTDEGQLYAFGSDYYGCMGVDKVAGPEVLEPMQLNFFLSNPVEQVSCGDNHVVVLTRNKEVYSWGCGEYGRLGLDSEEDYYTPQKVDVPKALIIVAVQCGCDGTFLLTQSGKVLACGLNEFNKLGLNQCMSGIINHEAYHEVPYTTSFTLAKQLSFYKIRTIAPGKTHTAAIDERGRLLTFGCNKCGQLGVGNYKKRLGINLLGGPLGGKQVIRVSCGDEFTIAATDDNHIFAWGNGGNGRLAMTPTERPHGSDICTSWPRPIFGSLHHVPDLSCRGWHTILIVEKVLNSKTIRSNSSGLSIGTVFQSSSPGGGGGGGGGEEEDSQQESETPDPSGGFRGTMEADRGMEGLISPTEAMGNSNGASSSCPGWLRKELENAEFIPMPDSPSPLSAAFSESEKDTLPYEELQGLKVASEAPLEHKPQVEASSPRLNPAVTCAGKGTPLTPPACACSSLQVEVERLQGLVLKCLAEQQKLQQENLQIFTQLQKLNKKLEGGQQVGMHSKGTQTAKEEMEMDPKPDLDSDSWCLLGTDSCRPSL
Summary of the method: as §1

[8] = target: T8, PDK1 (Homo sapiens, UniProt O15530); conditions: 10 µM compound; ATP 100
T8 construct: purchased ThermoFisher (SelectScreen, Z'-LYTE)
T8 sequence (O15530 1-556): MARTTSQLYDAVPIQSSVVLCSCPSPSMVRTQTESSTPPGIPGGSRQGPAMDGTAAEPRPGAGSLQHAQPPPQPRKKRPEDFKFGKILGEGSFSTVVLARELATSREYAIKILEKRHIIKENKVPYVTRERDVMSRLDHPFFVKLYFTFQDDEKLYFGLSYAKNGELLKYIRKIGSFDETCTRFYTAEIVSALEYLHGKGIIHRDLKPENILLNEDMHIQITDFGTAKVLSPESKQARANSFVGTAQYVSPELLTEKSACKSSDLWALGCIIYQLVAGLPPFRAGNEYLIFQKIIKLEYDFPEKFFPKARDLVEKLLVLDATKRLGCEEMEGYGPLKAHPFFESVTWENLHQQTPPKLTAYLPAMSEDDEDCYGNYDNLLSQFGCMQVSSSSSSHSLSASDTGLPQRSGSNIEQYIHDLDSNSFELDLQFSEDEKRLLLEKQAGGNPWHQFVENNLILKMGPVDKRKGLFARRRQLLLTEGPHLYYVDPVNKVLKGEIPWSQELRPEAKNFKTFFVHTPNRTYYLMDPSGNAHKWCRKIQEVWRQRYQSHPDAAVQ
Summary of the method: as §1

[9] = target: T9, SNF1LK2 (Homo sapiens, UniProt Q9H0K1)
T9 construct: purchased ThermoFisher (SelectScreen, Z'-LYTE)
T9 sequence (Q9H0K1 whole entry): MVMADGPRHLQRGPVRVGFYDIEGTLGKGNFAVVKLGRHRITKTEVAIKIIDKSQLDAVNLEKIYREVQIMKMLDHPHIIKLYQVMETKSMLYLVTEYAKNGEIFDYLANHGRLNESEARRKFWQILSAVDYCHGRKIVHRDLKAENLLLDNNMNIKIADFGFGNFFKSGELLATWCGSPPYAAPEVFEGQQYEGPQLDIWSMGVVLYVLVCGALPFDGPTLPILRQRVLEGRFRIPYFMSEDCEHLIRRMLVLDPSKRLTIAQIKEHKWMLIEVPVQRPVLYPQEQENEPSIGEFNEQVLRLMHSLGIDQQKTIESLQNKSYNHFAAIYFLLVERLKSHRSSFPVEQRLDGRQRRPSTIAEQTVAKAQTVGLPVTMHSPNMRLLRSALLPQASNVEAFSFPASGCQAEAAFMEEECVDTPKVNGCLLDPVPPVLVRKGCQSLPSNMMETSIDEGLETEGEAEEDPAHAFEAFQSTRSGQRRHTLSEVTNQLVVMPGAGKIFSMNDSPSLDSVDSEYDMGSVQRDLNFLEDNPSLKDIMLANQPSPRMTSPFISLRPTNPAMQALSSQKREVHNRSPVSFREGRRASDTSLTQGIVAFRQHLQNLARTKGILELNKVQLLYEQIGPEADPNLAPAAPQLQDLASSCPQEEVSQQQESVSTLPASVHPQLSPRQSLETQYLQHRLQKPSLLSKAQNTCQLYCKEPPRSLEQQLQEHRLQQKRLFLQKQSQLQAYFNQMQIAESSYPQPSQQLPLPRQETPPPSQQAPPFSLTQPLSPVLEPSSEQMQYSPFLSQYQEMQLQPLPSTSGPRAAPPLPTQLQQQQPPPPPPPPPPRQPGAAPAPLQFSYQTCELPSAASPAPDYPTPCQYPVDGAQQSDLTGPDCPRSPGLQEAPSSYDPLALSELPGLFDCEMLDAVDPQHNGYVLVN
Summary of the method: as §1

T1 sequence (P31751 whole entry): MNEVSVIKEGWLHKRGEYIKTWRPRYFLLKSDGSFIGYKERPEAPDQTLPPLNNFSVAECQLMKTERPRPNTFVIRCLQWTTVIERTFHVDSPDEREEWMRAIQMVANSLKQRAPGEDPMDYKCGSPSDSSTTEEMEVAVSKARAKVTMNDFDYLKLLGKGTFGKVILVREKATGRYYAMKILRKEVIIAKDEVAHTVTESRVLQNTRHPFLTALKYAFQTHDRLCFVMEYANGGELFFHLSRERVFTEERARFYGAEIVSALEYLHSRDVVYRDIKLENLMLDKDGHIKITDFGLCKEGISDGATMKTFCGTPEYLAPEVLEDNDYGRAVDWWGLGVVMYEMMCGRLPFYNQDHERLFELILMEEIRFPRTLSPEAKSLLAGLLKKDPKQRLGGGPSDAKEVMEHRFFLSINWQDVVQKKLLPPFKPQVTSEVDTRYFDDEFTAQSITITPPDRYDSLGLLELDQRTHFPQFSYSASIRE

Compound | inhibition at 10 µM [1] [%] | inhibition at 10 µM [2] [%] | inhibition at 10 µM [3] [%] | inhibition at 10 µM [4] [%] | inhibition at 10 µM [5] [%] | inhibition at 10 µM [6] [%] | inhibition at 10 µM [7] [%] | inhibition at 10 µM [8] [%] | inhibition at 10 µM [9] [%] | AKT2 (PKB beta) % Inhibition ([1]; 10 µM compound, ATP Km app) [%] | CHEK2 (CHK2) % Inhibition ([2]; 10 µM compound, ATP Km app) [%] | EEF2K % Inhibition ([3]; 10 µM compound, ATP Km app) [%] | EPHB4 % Inhibition ([4]; 10 µM compound, ATP Km app) [%] | ERBB4 (HER4) % Inhibition ([5]; 10 µM compound, ATP Km app) [%] | MINK1 % Inhibition ([6]; 10 µM compound, ATP Km app) [%] | NEK9 % Inhibition ([7]; 10 µM compound, ATP Km app) [%] | PDK1 % Inhibition [8] [%] | SNF1LK2 % Inhibition ([9]; 10 µM compound, ATP Km app) [%]
Cc1ncc(-c2nc(Nc3ccc(C(=O)NCCN4CCCCC4)cc3)ncc2F)n1C(C)C [Compound 3] | 7 | 88 | 1.51 | 83 | 17 | 88 | 18 | 50 | 88 |  |  |  |  |  |  |  |  | 
Cc1cc(Nc2nc(N)nn2C(=O)NC(C)C)ccc1Cl [Compound 5] | -0.29 | 4.23 | -5.55 | 17 | 7 | 21 | 1.46 | 8 | 74 |  |  |  |  |  |  |  |  | 
XMD8-92 [Compound 2, reference compound] |  |  |  |  |  |  |  |  |  | 98 | 26 | -6 | 29 | 16 | 66 | -0.532 | 21 | 62
